Several values for one entry are separate records, joined by “and”; a condition that tells them apart may be missing. Equal values may be shown once.
Biological target: P2Y12 receptor (Homo sapiens, UniProt Q9H244)
Assay: [33P]-2MeS-ADP binding to recombinant human P2Y12 membranes (Assay 3)
Design: expressed in transfected cells; host or cells: HEK cells
Settings: for IC50 / Ki: HEK cell membranes expressing human P2Y12, competition with 33P 2MeS-ADP; for % Inhibition / inhibition at 10 µM / inhibition at 1 µM: at highest concentration tested
Experimental: 3. Human P2Y12 Recombinant Cell Membrane Binding Assay with ^33P 2MeS-ADP.
The ability of a test compound to bind to the P2Y12 receptor was evaluated in a recombinant cell membrane binding assay. In this competitive binding assay, the test compound competed against a radiolabelled agonist for binding to the P2Y12 receptor, expressed on the cell membrane. Inhibition of binding of the labeled material was measured and correlated to the amount and potency of the test compound. Data from this assay are presented in Table F. This binding assay is a modification of the procedure in Takasaki, J. et. al, Mol. Pharmacol., 2001, Vol. 60, pg. 432.
HEK cells were transfected with the pDONR201P2Y12 vector and cultured in MEM with GlutaMAX I, Earle's salts, 25 mM HEPES (Gibco # 42360-032) containing 10% dialyzed FBS (Gibco # 26400-044), 100 μM nonessential amino acids (Gibco # 11140-050), 1 mM sodium pyruvate (Gibco # 11360-070), 0.05% geneticin (Gibco #10131-027), 3 μg/mL blasticidin (Fluka brand from Sigma # 15205), and 0.5 μg/mL puromycin (Sigma # P-8833).
Confluent cells were washed once with cold DPBS (Gibco # 14190-136). Fresh DPBS was added and the cells were scraped and centrifuged at 500×g for 5 minutes at 4° C. The cell pellets were resuspended in TEE buffer (25 mM Tris, 5 mM EDTA, 5 mM EGTA) containing 1 protease inhibitor cocktail tablet (Roche # 1 873 580) per 50 mL (called TEE+Complete) and can be flash frozen at this point.
In one embodiment, frozen cell pellets were used to prepare the membranes. In that embodiment, the frozen cell pellets were thawed on ice. In another embodiment, cell pellets may be used without flash freezing before moving on to the next step.
Cell pellets were resuspended in TEE buffer+Complete and homogenized in a glass dounce for 12 strokes. The cell suspension was centrifuged at 500×g for 5 minutes at 4° C. The supernatant was saved and centrifuged at 20,000×g for 20 minutes at 4° C. This supernatant was discarded and the cell pellet resuspended in TEE buffer+Complete and homogenized in a glass dounce for 12 strokes. This suspension was centrifuged at 20,000×g for 20 minutes at 4° C. and the supernatant discarded. The pellet was resuspended in assay buffer (50 mM Tris, 100 mM NaCl, 1 mM EDTA) containing one protease inhibitor cocktail tablet per 50 mL, and can be flash frozen as 1 mL aliquots at this point.
Dry compounds were diluted as 10 mM DMSO stocks and tested in a seven-point, three-fold dilution series run in triplicate beginning at 10 μM, final concentration. A 1 mM DMSO intermediate stock was made in a dilution plate and from this the seven dilutions were made to 5× the final concentration in assay buffer containing 0.02% BSA.
The plates were incubated at room temperature for 1 hour. The reaction was stopped using a cell harvester to transfer the reaction mixture onto GF/B UniFilter plates (Perkin Elmer # 6005177), and washed three times with wash buffer (50 mM Tris), filtering between each wash. The filter plates were dried for approximately 20 minutes in an oven at 50° C. Back seals were adhered to the filter plates and 25 uL of Microscint 20 scintillation fluid (Perkin Elmer # 6013621) were added. The filter plates were sealed, shaken for 30 minutes, and counted on a Top Count. Data were analyzed using a four-parameter curve fit with a fixed minimum and maximum experimentally defined as the average positive and negative controls on each plate, and with a hill slope equal to one.
The table below presents the IC50, Ki, and percent inhibition values for compounds tested in either washed human platelets membrane binding assay (assay #1 above) or recombinant cell membrane binding assay (Assay #3, above). Example number refers to the compound prepared as described in the example noted in the section Working Examples, above. The highest concentration of candidate compound tested is listed for each experimental run presented. […]

Chain of P2Y12 receptor (Q9H244 whole entry): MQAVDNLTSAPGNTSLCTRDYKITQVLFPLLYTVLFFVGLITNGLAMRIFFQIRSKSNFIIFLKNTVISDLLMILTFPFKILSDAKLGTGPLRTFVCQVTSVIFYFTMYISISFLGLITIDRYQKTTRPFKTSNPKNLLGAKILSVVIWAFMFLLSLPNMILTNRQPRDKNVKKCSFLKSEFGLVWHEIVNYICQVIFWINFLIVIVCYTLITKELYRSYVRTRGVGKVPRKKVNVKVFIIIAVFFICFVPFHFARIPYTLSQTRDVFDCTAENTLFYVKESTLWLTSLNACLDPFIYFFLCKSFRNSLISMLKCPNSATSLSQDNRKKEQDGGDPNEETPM

| IC50 | Ki | % Inhibition (10 μM) | inhibition at 10 µM (10 μM) [%] | inhibition at 1 µM (1 μM) [%] | % Inhibition (1 μM) [%] | SMILES |
| --- | --- | --- | --- | --- | --- | --- |
| 1020 nM and 380 nM and 420 nM and 320 nM | 582 nM and 210 nM and 240 nM and 174 nM | 89.51% and 95.92% and 94.06% | 92.9 | – | – | CCc1cc2c(N3CCN(C(=O)Cc4ccccc4)CC3)nc(SCC(=O)OC)nc2s1 [Example 7, methyl ({6-ethyl-4-[4-(phenylacetyl)piperazin-1-yl]thieno[2,3-d]pyrimidin-2-yl}thio)acetate] |
| 1200 nM | 720 nM and 680 nM | 81.44% | 81.3 | – | – | CCc1cc2c(N3CCN(C(=O)Cc4ccccc4)CC3)nc(S(=O)(=O)CC(=O)OC)nc2s1 [Example 8, Methyl ({6-ethyl-4-[4-(phenylacetyl)piperazin-1-yl]thieno[2,3-d]pyrimidin-2-yl}sulfonyl)acetate] |
| > 10000 nM and 9300 nM | > 5900 nM and 5400 nM | – | – | – | – | CCc1cc2c(N3CCN(C(=O)Cc4ccccc4)CC3)nc(SCC(=O)Nc3ccc4ccccc4c3)nc2s1 [Example 9, 2-({6-Ethyl-4-[4-(phenylacetyl)piperazin-1-yl]thieno[2,3-d]pyrimidin-2-yl}thio)-N-2-naphthylacetamide] |
| 990 nM and 550 nM | 570 nM and 330 nM | 79.53% | 82.3 | – | – | C=CCSc1nc(N2CCN(C(=O)Cc3ccccc3)CC2)c2cc(CC)sc2n1 [Example 10, 2-(Allylthio)-6-ethyl-4-[4-(phenylacetyl)piperazin-1-yl]thieno[2,3-d]pyrimidine] |
| 330 nM and 230 nM and 270 nM and 328 nM | 190 nM and 130 nM and 160 nM and 189 nM | 92.50% and 88.81% | 90.5 | 81 | – | CCc1cc2c(N3CCN(C(=O)Cc4ccccc4)CC3)nc(SC(C)C(=O)NCC(=O)O)nc2s1 (stereo not shown) [Example 11, N-[2-({6-Ethyl-4-[4-(phenylacetyl)piperazin-1-yl]thieno[2,3-d]pyrimidin-2-yl}thio)propanoyl]glycine] |
| 340 nM and 370 nM | 200 nM and 210 nM | 92.83% | 83.4 | – | – | CCc1cc2c(N3CCN(C(=O)Cc4ccccc4)CC3)nc(SCC(O)CO)nc2s1 (stereo not shown) [Example 12, 3-({6-Ethyl-4-[4-(phenylacetyl)piperazin-1-yl]thieno[2,3-d]pyrimidin-2-yl}thio)propane-1,2-diol] |
| 280 nM and 530 nM | 160 nM and 310 nM | 88.77% | 88.2 | – | – | CCc1cc2c(N3CCN(C(=O)Cc4ccccc4)CC3)nc(SCC(=O)NC)nc2s1 [Example 13, 2-({6-Ethyl-4-[4-(phenylacetyl)piperazin-1-yl]thieno[2,3-d]pyrimidin-2-yl}thio)-N-methylacetamide] |
| 290 nM and 330 nM | 160 nM and 200 nM | 83.72% | 89.9 | – | – | CCc1cc2c(N3CCN(C(=O)Cc4ccccc4)CC3)nc(SC(C)C(C)=O)nc2s1 (stereo not shown) [Example 14, 3-({6-Ethyl-4-[4-(phenylacetyl)piperazin-1-yl]thieno[2,3-d]pyrimidin-2-yl}thio)butan-2-one] |
| 300 nM | 170 nM | 92.26% | 87 | – | – | CCc1cc2c(N3CCN(C(=O)Cc4ccccc4)CC3)nc(SCCNC(C)=O)nc2s1 [Example 15, N-[2-({6-Ethyl-4-[4-(phenylacetyl)piperazin-1-yl]thieno[2,3-d]pyrimidin-2-yl}thio)ethyl]acetamide] |
| 270 nM and 360 nM | 150 nM and 210 nM | 87.82% | 88.7 | – | – | CCc1cc2c(N3CCN(C(=O)Cc4ccccc4)CC3)nc(SC[C@H](N)C(=O)OC)nc2s1 [Example 16, Methyl S-{6-ethyl-4-[4-(phenylacetyl)piperazin-1-yl]thieno[2,3-d]pyrimidin-2-yl}-L-cysteinate] |
| 500 nM and 530 nM | 290 nM and 310 nM | 87.05% | 90.6 | – | – | CCc1cc2c(N3CCN(C(=O)Cc4ccccc4)CC3)nc(SCC(C)O)nc2s1 (stereo not shown) [Example 17, 1-({6-Ethyl-4-[4-(phenylacetyl)piperazin-1-yl]thieno[2,3-d]pyrimidin-2-yl}thio)propan-2-ol] |
| 22 nM and 10 nM and 20 nM and 43 nM | 12 nM and 10 nM and 25 nM | 98.24% | 95.8 | 91.9 | 95.00 | CCc1cc2c(N3CCN(C(=O)c4ccc(-c5ccccc5)cc4)CC3)nc(Cl)nc2s1 [Example 21, 4-[4-(1,1′-Biphenyl-4-ylcarbonyl)piperazin-1-yl]-2-chloro-6-ethylthieno[2,3-d]pyrimidine] |
| 43 nM and 51 nM | 25 nM and 28 nM | 90.70% | 92.7 | – | – | CCc1cc2c(N3CCN(C(=O)c4ccc(-c5ccccc5)cc4)CC3)nc(SCC(=O)OC)nc2s1 [Example 22, Methyl ({4-[4-(1,1′-biphenyl-4-ylcarbonyl)piperazin-1-yl]-6-ethylthieno[2,3-d]pyrimidin-2-yl}thio)acetate] |
| – | – | 75.04% | 64.6 | – | – | CCc1cc2c(N3CCN(C(=O)Cc4ccccc4)CC3)nc(SCC(=O)Nc3ccccc3)nc2s1 [Example 23, 2-({6-Ethyl-4-[4-(phenylacetyl)piperazin-1-yl]thieno[2,3-d]pyrimidin-2-yl}thio)-N-phenylacetamide] |
| 190 nM and 240 nM | 110 nM and 130 nM | 92.16% | 83.1 | – | – | CCc1cc2c(N3CCN(C(=O)Cc4ccccc4)CC3)nc(SCC(N)=O)nc2s1 [Example 24, 2-({6-Ethyl-4-[4-(phenylacetyl)piperazin-1-yl]thieno[2,3-d]pyrimidin-2-yl}thio)acetamide] |
| 200 nM and 270 nM | 110 nM and 150 nM | 94.08% | 88.6 | – | – | CCc1cc2c(N3CCN(C(=O)Cc4ccccc4)CC3)nc(SC(C)C(=O)O)nc2s1 (stereo not shown) [Example 25, 2-({6-Ethyl-4-[4-(phenylacetyl)piperazin-1-yl]thieno[2,3-d]pyrimidin-2-yl}thio)propanoic acid] |
| 800 nM | 460 nM and 430 nM | 88.94% | 88.7 | – | – | CCc1cc2c(N3CCN(C(=O)Cc4ccccc4)CC3)nc(SCCc3ccncc3)nc2s1 [Example 26, 6-Ethyl-4-[4-(phenylacetyl)piperazin-1-yl]-2-[(2-pyridin-4-ylethyl)thio]thieno[2,3-d]pyrimidine] |
| 100 nM | 58 nM | – | 96.5 | – | – | CCc1cc2c(N3CCN(C(=O)c4ccc(-c5ccccc5)cc4)CC3)nc(SCCNC(C)=O)nc2s1 [Example 27, N-[2-({4-[4-(1,1′-Biphenyl-4-ylcarbonyl)piperazin-1-yl]-6-ethylthieno[2,3-d]pyrimidin-2-yl}thio)ethyl]acetamide] |
| 38 nM | 22 nM | – | 94.3 | – | – | CCc1cc2c(N3CCN(C(=O)c4ccc(-c5ccccc5)cc4)CC3)nc(SCC(O)CO)nc2s1 (stereo not shown) [Example 28, 3-({4-[4-(1,1′-Biphenyl-4-ylcarbonyl)piperazin-1-yl]-6-ethylthieno[2,3-d]pyrimidin-2-yl}thio)propane-1,2-diol] |
| 160 nM | 91 nM | – | 82.2 | – | – | CCc1cc2c(N3CCN(C(=O)c4ccc(-c5ccccc5)cc4)CC3)nc(SC(C)C(C)=O)nc2s1 (stereo not shown) [Example 29, 3-({4-[4-(1′-Biphenyl-4-ylcarbonyl)piperazin-1-yl]-6-ethylthieno[2,3-d]pyrimidin-2-yl}thio)butan-2-one] |
| 31 nM | 18 nM | – | 99.7 | – | – | CCc1cc2c(N3CCN(C(=O)c4ccc(-c5ccccc5)cc4)CC3)nc(SCC(N)=O)nc2s1 [Example 31, 2-({4-[4-(1,1′-Biphenyl-4-ylcarbonyl)piperazin-1-yl]-6-ethylthieno[2,3-d]pyrimidin-2-yl}thio)acetamide] |

Reference: patent US20080176857A1, “4-Piperazinnylthieno[2,3-d]Pyrimidine Compounds as Platelet Aggregation Inhibitors” (priority 2005, published 2008)
